Measurements taken from patent US20100267561A1, “HERBICIDAL PYRIDAZINONE DERIVATIVES” (priority 2007, published 2010).

What was measured:
Assay type in all cases: in vivo
[1] = test system: barnyardgrass (Echinochloa crus-galli); assay: Test A pre-/postemergence plant response
How it was run: (§1)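 Ratings run 0–100 (100 = complete control), assigned visually against untreated controls roughly 10 days after treatment in a greenhouse. Compounds, formulated in non-phytotoxic solvent containing surfactant, were applied as a soil-directed preemergence spray and concurrently postemergence to one- to two-leaf plants 2–10 cm tall.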

[2] = test system: corn (Zea mays); assay: Test A pre-/postemergence plant response
How it was run: as §1

[3] = test system: pigweed (Amaranthus retroflexus); assay: Test A pre-/postemergence plant response
How it was run: as §1

[4] = test system: wheat (Triticum aestivum); assay: Test A pre-/postemergence plant response
How it was run: as §1

[5] = test system: catchweed bedstraw (Galium aparine); assay: Test B pre-/postemergence plant response; settings: Preemergence; for Galium plant response rating: scale 0 to 100
How it was run: (§2)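 Visual scoring from 0 (no effect) to 100 (complete control) against untreated controls was done 13 to 15 days after greenhouse treatment. Chemicals were formulated in a surfactant-containing non-phytotoxic solvent and applied to soil preemergence or to 1- to 4-leaf (2-18 cm) plants postemergence.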

[6] = test system: johnsongrass (Sorghum halepense); assay: Test B pre-/postemergence plant response
How it was run: as §2

[7] = test system: pigweed (Amaranthus retroflexus); assay: Test B pre-/postemergence plant response
How it was run: as §2

[8] = test system: canarygrass (Phalaris minor); assay: Test B postemergence plant response; settings: for Plant response rating, Canarygrass: Postemergence
Protocol: (§3) At the same time, plants selected from these crop and weed species and also winter barley (Hordeum vulgare), canarygrass (Phalaris minor), chickweed (Stellaria media) and windgrass (Apera spica-venti) were treated with postemergence applications of some of the test chemicals formulated in the same manner. Plants ranged in height from 2 to 18 cm (1- to 4-leaf stage) for postemergence treatments.
(§4) Plant species in the flooded paddy test consisted of rice (Oryza sativa), umbrella sedge (Cyperus difformis), ducksalad (Heteranthera limosa) and barnyardgrass (Echinochloa crus-galli) grown to the 2-leaf stage for testing. At time of treatment, test pots were flooded to 3 cm above the soil surface, treated by application of test compounds directly to the paddy water, and then maintained at that water depth for the duration of the test. Treated plants and controls were maintained in a greenhouse for 13 to 15 days, after which time all species were compared to controls and visually evaluated. Plant response ratings, summarized in Table B, are based on a scale of 0 to 100 where 0 is no effect and 100 is complete control. A dash (-) response means no test result.

[9] = test system: chickweed (Stellaria media); assay: Test B postemergence plant response; settings: for Chickweed plant response rating: 8 g ai/ha, postemergence, 0-100 scale; for Plant response rating, Chickweed: Postemergence
Protocol: as §3, §4

[10] = test system: windgrass (Apera spica-venti); assay: Test B postemergence plant response; settings: for Windgrass plant response rating: postemergence, 0-100 scale; for Plant response rating, Windgrass: Postemergence
Protocol: as §3, §4

[11] = test system: winter barley (Hordeum vulgare); assay: Test B postemergence plant response; settings: for Barley plant response rating: 8 g ai/ha, postemergence, 0-100 scale; for Plant response rating, Barley: Postemergence, scale 0 to 100, 0 no effect, 100 complete control
Protocol: as §3, §4

[12] = Postemergence, 31 g ai/ha, 0 to 100 scale, 0 no effect, 100 complete control
[13] = Postemergence, 125 g ai/ha, 0 to 100 scale, 0 no effect, 100 complete control
[14] = Preemergence, 31 g ai/ha, 0 to 100 scale, 0 is no effect, 100 is complete control
[15] = Preemergence, 125 g ai/ha, 0 to 100 scale (0 no effect, 100 complete control)
[16] = 31 g ai/ha, scale 0 to 100 (0 no effect, 100 complete control)
[17] = 62 g ai/ha, 0 to 100 scale, 0 no effect, 100 complete control
[18] = 8 g ai/ha, postemergence, 0-100 scale
[19] = 16 g ai/ha, postemergence, 0-100 scale
[20] = Postemergence, 62 g ai/ha, scale 0 to 100, 0 no effect, 100 complete control
[21] = Preemergence, 31 g ai/ha, scale 0 to 100 (0 no effect, 100 complete control)
[22] = Preemergence, 62 g ai/ha, 0 to 100 scale, 0 no effect, 100 complete control
[23] = Preemergence, 8 g ai/ha, scale 0 to 100
[24] = Preemergence, 16 g ai/ha, scale 0 to 100
[25] = Postemergence, 31 g ai/ha, scale 0 to 100
[26] = 62 g ai/ha, scale 0 to 100, 0 no effect, 100 complete control

CCCc1cc(-c2ccc(C(F)(F)F)cc2)nn1-c1c(O)cnn(C)c1=O [Compound 72]
Plant response rating, Barnyardgrass [1, 12]: 50
Plant response rating, Barnyardgrass [1, 13]: 100
Plant response rating, Barnyardgrass [1, 14]: 20
Plant response rating, Barnyardgrass [1, 15]: 90
Plant response rating, Corn [2, 12]: 80
Plant response rating, Corn [2, 13]: 100
Plant response rating, Corn [2, 14]: 20
Plant response rating, Corn [2, 15]: 50
Plant response rating, Pigweed [3, 12]: 0
Plant response rating, Pigweed [3, 13]: 0
Plant response rating, Pigweed [3, 14]: 0
Plant response rating, Pigweed [3, 15]: 0
Plant response rating, Wheat [4, 12]: 60
Plant response rating, Wheat [4, 13]: 90
Plant response rating, Wheat [4, 14]: 50
Plant response rating, Wheat [4, 15]: 80
Plant response rating, Galium [5, 16]: 0
Plant response rating, Galium [5, 17]: 0
Galium plant response rating ([5]; 8 g ai/ha): 0
Galium plant response rating ([5]; 16 g ai/ha): 0
Johnsongrass plant response rating [6, 18]: 70
Johnsongrass plant response rating [6, 19]: 75
Plant response rating, Johnsongrass [6, 20]: 100
Plant response rating, Johnsongrass [6, 21]: 95
Plant response rating, Johnsongrass [6, 22]: 100
Johnsongrass plant response rating [6, 23]: 50
Johnsongrass plant response rating [6, 24]: 55
Pigweed plant response rating [7, 18]: 0
Pigweed plant response rating [7, 19]: 0
Plant response rating, Pigweed [7, 25]: 0
Plant response rating, Pigweed [7, 20]: 0
Plant response rating, Pigweed [7, 21]: 0
Plant response rating, Pigweed [7, 22]: 50
Pigweed plant response rating [7, 23]: 0
Pigweed plant response rating [7, 24]: 0
Plant response rating, Canarygrass ([8]; 16 g ai/ha, scale 0 to 100): 30
Plant response rating, Canarygrass ([8]; 31 g ai/ha, scale 0 to 100): 30
Plant response rating, Canarygrass [8, 26]: 95
Chickweed plant response rating [9]: 0
Plant response rating, Chickweed ([9]; 16 g ai/ha, scale 0 to 100): 0
Plant response rating, Chickweed ([9]; 31 g ai/ha, scale 0 to 100): 0
Plant response rating, Chickweed [9, 26]: 0
Windgrass plant response rating ([10]; 8 g ai/ha): 85
Windgrass plant response rating ([10]; 16 g ai/ha): 100
Plant response rating, Windgrass ([10]; 31 g ai/ha, scale 0 to 100): 100
Plant response rating, Windgrass [10, 26]: 100
Barley plant response rating [11]: 0
Plant response rating, Barley ([11]; 16 g ai/ha): 0
Plant response rating, Barley ([11]; 31 g ai/ha): 0
Plant response rating, Barley ([11]; 62 g ai/ha): 95

CCc1cc(-c2ccc(Br)cc2)nn1-c1c(O)c(C)nn(C)c1=O [Compound 74]
Plant response rating, Barnyardgrass [1, 12]: 100
Plant response rating, Barnyardgrass [1, 13]: 100
Plant response rating, Barnyardgrass [1, 14]: 100
Plant response rating, Barnyardgrass [1, 15]: 100
Plant response rating, Corn [2, 12]: 60
Plant response rating, Corn [2, 13]: 100
Plant response rating, Corn [2, 15]: 60
Plant response rating, Pigweed [3, 12]: 0
Plant response rating, Pigweed [3, 13]: 0
Plant response rating, Pigweed [3, 14]: 0
Plant response rating, Pigweed [3, 15]: 0
Plant response rating, Wheat [4, 12]: 70
Plant response rating, Wheat [4, 13]: 80
Plant response rating, Wheat [4, 14]: 20
Plant response rating, Wheat [4, 15]: 60
Plant response rating, Galium [5, 16]: 0
Plant response rating, Galium [5, 17]: 0
Galium plant response rating ([5]; 8 g ai/ha): 0
Galium plant response rating ([5]; 16 g ai/ha): 0
Johnsongrass plant response rating [6, 18]: 98
Johnsongrass plant response rating [6, 19]: 98
Plant response rating, Johnsongrass [6, 25]: 100
Plant response rating, Johnsongrass [6, 20]: 100
Plant response rating, Johnsongrass [6, 21]: 90
Plant response rating, Johnsongrass [6, 22]: 100
Johnsongrass plant response rating [6, 23]: 70
Johnsongrass plant response rating [6, 24]: 85
Pigweed plant response rating [7, 18]: 0
Pigweed plant response rating [7, 19]: 0
Plant response rating, Pigweed [7, 25]: 0
Plant response rating, Pigweed [7, 20]: 0
Plant response rating, Pigweed [7, 21]: 0
Plant response rating, Pigweed [7, 22]: 20
Pigweed plant response rating [7, 23]: 0
Pigweed plant response rating [7, 24]: 0
Canarygrass plant response rating [8, 18]: 80
Plant response rating, Canarygrass ([8]; 16 g ai/ha, scale 0 to 100): 90
Plant response rating, Canarygrass ([8]; 31 g ai/ha, scale 0 to 100): 100
Plant response rating, Canarygrass [8, 26]: 100
Chickweed plant response rating [9]: 0
Plant response rating, Chickweed ([9]; 16 g ai/ha, scale 0 to 100): 0
Plant response rating, Chickweed ([9]; 31 g ai/ha, scale 0 to 100): 0
Plant response rating, Chickweed [9, 26]: 0
Windgrass plant response rating ([10]; 8 g ai/ha): 85
Windgrass plant response rating ([10]; 16 g ai/ha): 90
Plant response rating, Windgrass ([10]; 31 g ai/ha, scale 0 to 100): 100
Plant response rating, Windgrass [10, 26]: 100
Barley plant response rating [11]: 20
Plant response rating, Barley ([11]; 16 g ai/ha): 40
Plant response rating, Barley ([11]; 31 g ai/ha): 95
Plant response rating, Barley ([11]; 62 g ai/ha): 95
